Patent US20240109917A1 (ACTELION PHARMACEUTICALS LTD, priority 2020, published 2024)

Molecular target: His6-TEV-PDGFRβ (557-1016) (Homo sapiens (Human), UniProt P09619)
Experiment: PDGFRβ HTRF Assay
Format: biochemical
Settings: read-out: PDGFR HTRF IC50
How it was run: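 HTRF KinEASE-TK readout (665/620 nm ratio) of TK-biotin substrate phosphorylation by His-tagged PDGFRβ kinase domain. Enzyme and inhibitor preincubated 30 min, then ATP/substrate added for 3 h at room temperature before 60 min EDTA quench/detection.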

His6-TEV-PDGFRβ (557-1016), sequence (P09619 557-1016): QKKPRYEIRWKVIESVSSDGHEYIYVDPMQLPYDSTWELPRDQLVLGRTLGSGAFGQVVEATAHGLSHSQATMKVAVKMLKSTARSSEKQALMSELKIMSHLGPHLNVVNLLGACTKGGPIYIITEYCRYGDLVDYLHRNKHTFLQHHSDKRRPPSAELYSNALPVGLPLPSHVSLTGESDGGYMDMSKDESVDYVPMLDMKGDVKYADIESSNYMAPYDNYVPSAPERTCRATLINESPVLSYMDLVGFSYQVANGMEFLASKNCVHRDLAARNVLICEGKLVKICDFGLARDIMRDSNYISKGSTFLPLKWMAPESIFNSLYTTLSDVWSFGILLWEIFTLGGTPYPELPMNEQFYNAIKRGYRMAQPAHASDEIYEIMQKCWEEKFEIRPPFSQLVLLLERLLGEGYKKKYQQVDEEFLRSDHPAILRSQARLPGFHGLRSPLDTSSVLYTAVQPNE

| Compound | IC50 |
| --- | --- |
| Cc1ncc(NC(=O)CN2CCC[C@@H]2C)cc1NC(=O)c1cnn2cc(-c3cnn(CCO)c3)sc12 [Example 84, (S)-2-(1-(2-hydroxyethyl)-1H-pyrazol-4-yl)-N-(2-methyl-5-(2-(2-methylpyrrolidin-1-yl)acetamido)pyridin-3-yl)pyrazolo[5,1-b]thiazole-7-carboxamide] | 0.9 nM |
| Cc1ncc(C(=O)NCCN2CCCC23CC3)cc1NC(=O)c1cnn2cc(-c3cnn(C)c3)sc12 [Example 2, N-(5-((2-(4-azaspiro[2.4]heptan-4-yl)ethyl)carbamoyl)-2-methylpyridin-3-yl)-2-(1-methyl-1H-pyrazol-4-yl)pyrazolo[5,1-b]thiazole-7-carboxamide] | 0.7 nM |
| CC[C@@H]1COCCN1CC(=O)Nc1cnc(C)c(NC(=O)c2cnn3cc(-c4cnn(C)c4)sc23)c1 [Example 69, (R)—N-(5-(2-(3-ethylmorpholino)acetamido)-2-methylpyridin-3-yl)-2-(1-methyl-1H-pyrazol-4-yl)pyrazolo[5,1-b]thiazole-7-carboxamide] | 0.5 nM |
| Cc1ncc(NC(=O)CN2CCOCC23CCC3)cc1NC(=O)c1cnn2cc(-c3cnn(C)c3)sc12 [Example 78, N-(5-(2-(8-oxa-5-azaspiro[3.5]nonan-5-yl)acetamido)-2-methylpyridin-3-yl)-2-(1-methyl-1H-pyrazol-4-yl)pyrazolo[5,1-b]thiazole-7-carboxamide] | 0.9 nM |
| Cc1ncc(C(=O)NCCN2CCCC2(C)C)cc1NC(=O)c1cnn2cc(-c3ccnc(N4CCOCC4)c3)sc12 [Example 483, N-(5-((2-(2,2-dimethylpyrrolidin-1-yl)ethyl)carbamoyl)-2-methylpyridin-3-yl)-2-(2-morpholinopyridin-4-yl)pyrazolo[5,1-b]thiazole-7-carboxamide] | 0.3 nM |
| COCCn1cc(-c2cn3ncc(C(=O)Nc4cc(NC(=O)C[C@H]5CCCN5C(C)C)cnc4C)c3s2)cn1 [Example 485, (R)—N-(5-(2-(1-isopropylpyrrolidin-2-yl)acetamido)-2-methylpyridin-3-yl)-2-(1-(2-methoxyethyl)-1H-pyrazol-4-yl)pyrazolo[5,1-b]thiazole-7-carboxamide] | 0.8 nM |
| Cc1ncc(NC(=O)CN2CCO[C@H](C)C2)cc1NC(=O)c1cnn2cc(-c3cnn(C)c3)sc12 [Example 54, (R)-2-(1-methyl-1H-pyrazol-4-yl)-N-(2-methyl-5-(2-(2-methylmorpholino)acetamido)pyridin-3-yl)pyrazolo[5,1-b]thiazole-7-carboxamide] | 0.5 nM |
| Cc1ncc(NC(=O)CN2CCc3c(cnn3C)C2)cc1NC(=O)c1cnn2cc(-c3cnn(C)c3)sc12 [Example 57, 2-(1-methyl-1H-pyrazol-4-yl)-N-(2-methyl-5-(2-(1-methyl-6,7-dihydro-1H-pyrazolo[4,3-c]pyridin-5 (4H)-yl)acetamido)pyridin-3-yl)pyrazolo[5,1-b]thiazole-7-carboxamide] | 1 nM |
